Source: ChEMBL document CHEMBL3407491, “Synthesis, characterization and in vitro photodynamic antimicrobial activity of basic amino acid-porphyrin conjugates” (Eur J Med Chem, 2015)
In brackets after ≈: the same amount, converted by molar mass. Activity calls are given as the source filed them. The calls are words filed in the database; no cut-off is given here.

Legend:
Pseudomonas aeruginosa [1] = test: Antibacterial activity against Pseudomonas aeruginosa ATCC 27853 at 3.91 uM to 62.50 uM incubated in dark for 30 mins followed by exposure to light fluences at 650 nm and 6 J/cm2 and then incubated overnight measured after 24 hrs; assay type: functional, organism-based
Escherichia coli [2] = test: Antibacterial activity against Escherichia coli ATCC 25922 incubated in dark for 30 mins measured after 24 hrs; assay type: functional
Staphylococcus aureus [3] = test: Antibacterial activity against methicillin-resistant Staphylococcus aureus incubated in dark for 30 mins and grown for 24 hrs followed by further incubation on LB agar plates for another 24 hrs; assay type: functional
Staphylococcus aureus [4] = test: Antibacterial activity against methicillin-resistant Staphylococcus aureus at 0.49 uM to 7.8 uM incubated in dark for 30 mins followed by exposure to light fluences at 650 nm and 6 J/cm2 and then incubated overnight measured after 24 hrs; assay type: functional, organism-based
Escherichia coli [5] = test: Antibacterial activity against Escherichia coli ATCC 25922 incubated in dark for 30 mins and grown for 24 hrs followed by further incubation on LB agar plates for another 24 hrs; assay type: functional
Pseudomonas aeruginosa [6] = test: Bactericidal activity against Pseudomonas aeruginosa ATCC 27853 incubated in dark for 30 mins followed by exposure to light fluences at 650 nm and 6 J/cm2 and then incubated overnight followed by further incubation on LB agar plates for another 24 hrs; assay type: functional; conditions: ATCC 27853, light or radiation study
Escherichia coli [7] = test: Bactericidal activity against Escherichia coli ATCC 25922 incubated in dark for 30 mins followed by exposure to light fluences at 650 nm and 6 J/cm2 and then incubated overnight followed by further incubation on LB agar plates for another 24 hrs; assay type: functional; conditions: ATCC 25922, light or radiation study
[8] = Photostability at 2 x 10^-5 mol/L exposed to 4.2 mW/cm2 light energy density assessed as change in absorption spectra after 30 mins post irradiation; assay type: physicochemical; conditions: 0.5 h, 20 µM
Escherichia coli [9] = test: Antibacterial activity against Escherichia coli ATCC 25922 at 3.91 uM to 62.50 uM incubated in dark for 30 mins followed by exposure to light fluences at 650 nm and 6 J/cm2 and then incubated overnight measured after 24 hrs; assay type: functional, organism-based
Staphylococcus aureus [10] = test: Antibacterial activity against methicillin-resistant Staphylococcus aureus incubated in dark for 30 mins followed by exposure to light fluences at 650 nm and 6 J/cm2 and then incubated overnight measured after 24 hrs; assay type: functional; conditions: light or radiation study
Pseudomonas aeruginosa [11] = test: Antibacterial activity against Pseudomonas aeruginosa ATCC 27853 incubated in dark for 30 mins measured after 24 hrs; assay type: functional
Staphylococcus aureus [12] = test: Bactericidal activity against methicillin-resistant Staphylococcus aureus incubated in dark for 30 mins followed by exposure to light fluences at 650 nm and 6 J/cm2 and then incubated overnight followed by further incubation on LB agar plates for another 24 hrs; assay type: functional; conditions: light or radiation study
Pseudomonas aeruginosa [13] = test: Antibacterial activity against Pseudomonas aeruginosa ATCC 27853 incubated in dark for 30 mins and grown for 24 hrs followed by further incubation on LB agar plates for another 24 hrs; assay type: functional
Pseudomonas aeruginosa [14] = test: Antibacterial activity against Pseudomonas aeruginosa ATCC 27853 incubated in dark for 30 mins followed by exposure to light fluences at 650 nm and 6 J/cm2 and then incubated overnight measured after 24 hrs; assay type: functional; conditions: ATCC 27853, light or radiation study
Pseudomonas aeruginosa [15] = test: Antibacterial activity against Pseudomonas aeruginosa ATCC 27853 at 0.49 uM to 7.8 uM incubated in dark for 30 mins followed by exposure to light fluences at 650 nm and 6 J/cm2 and then incubated overnight measured after 24 hrs; assay type: functional, organism-based
Escherichia coli [16] = test: Antibacterial activity against Escherichia coli ATCC 25922 incubated in dark for 30 mins followed by exposure to light fluences at 650 nm and 6 J/cm2 and then incubated overnight measured after 24 hrs; assay type: functional; conditions: ATCC 25922, light or radiation study
Escherichia coli [17] = test: Antibacterial activity against Escherichia coli ATCC 25922 at 0.49 uM to 7.8 uM incubated in dark for 30 mins followed by exposure to light fluences at 650 nm and 6 J/cm2 and then incubated overnight measured after 24 hrs; assay type: functional, organism-based
Staphylococcus aureus [18] = test: Antibacterial activity against methicillin-resistant Staphylococcus aureus incubated in dark for 30 mins measured after 24 hrs; assay type: functional
[19] = Singlet oxygen generation of the compound exposed to 4.2 mW/cm2 light energy density assessed as singlet oxygen quantum yield measured at 410 nm in 10 seconds intervals of irradiation at 0.2 uM by DPBF scavenger based assay
[20] = Octanol water partition coefficient, log P of the compound by reverse-phase thin-layer chromatography; assay type: physicochemical

Compound	Activity (Pseudomonas aeruginosa [1])	MIC (Escherichia coli [2])	MBC (Staphylococcus aureus [3])	Activity (Staphylococcus aureus [4])	MBC (Escherichia coli [5])	MBC (Pseudomonas aeruginosa [6])	MBC (Escherichia coli [7])	Activity [8]	Activity (Escherichia coli [9])	MIC (Staphylococcus aureus [10])	MIC (Pseudomonas aeruginosa [11])	MBC (Staphylococcus aureus [12])	MBC (Pseudomonas aeruginosa [13])	MIC (Pseudomonas aeruginosa [14])	Activity (Pseudomonas aeruginosa [15])	MIC (Escherichia coli [16])	Activity (Escherichia coli [17])	MIC (Staphylococcus aureus [18])	Activity [19]	logP [20]
Nc1ccc(-c2c3nc(c(-c4ccc(N)cc4)c4ccc([nH]4)c(-c4ccccc4)c4nc(c(-c5ccccc5)c5ccc2[nH]5)C=C4)C=C3)cc1	inactive	125 µM (≈ 80.6 µg/mL)	500 µM (≈ 322 µg/mL)	inactive	250 µM (≈ 161 µg/mL)	125 µM (≈ 80.6 µg/mL)	125 µM (≈ 80.6 µg/mL)	< 20%	inactive	125 µM (≈ 80.6 µg/mL)	125 µM (≈ 80.6 µg/mL)	250 µM (≈ 161 µg/mL)	250 µM (≈ 161 µg/mL)	62.5 µM (≈ 40.3 µg/mL)	inactive	62.5 µM (≈ 40.3 µg/mL)	inactive	125 µM (≈ 80.6 µg/mL)		
NCCCC[C@H](N)C(=O)Nc1ccc(-c2c3nc(c(-c4ccccc4)c4ccc([nH]4)c(-c4ccc(N)cc4)c4nc(c(-c5ccccc5)c5ccc2[nH]5)C=C4)C=C3)cc1		62.5 µM (≈ 48.3 µg/mL)	250 µM (≈ 193 µg/mL)		125 µM (≈ 96.6 µg/mL)	125 µM (≈ 96.6 µg/mL)	125 µM (≈ 96.6 µg/mL)	< 20%		62.5 µM (≈ 48.3 µg/mL)	125 µM (≈ 96.6 µg/mL)	250 µM (≈ 193 µg/mL)	250 µM (≈ 193 µg/mL)	62.5 µM (≈ 48.3 µg/mL)		62.5 µM (≈ 48.3 µg/mL)		125 µM (≈ 96.6 µg/mL)	0.27	1.46
NCCCC[C@H](N)C(=O)Nc1ccc(-c2c3nc(c(-c4ccc(N)cc4)c4ccc([nH]4)c(-c4ccccc4)c4nc(c(-c5ccccc5)c5ccc2[nH]5)C=C4)C=C3)cc1		62.5 µM (≈ 48.3 µg/mL)	250 µM (≈ 193 µg/mL)		125 µM (≈ 96.6 µg/mL)	125 µM (≈ 96.6 µg/mL)	125 µM (≈ 96.6 µg/mL)	< 20%		62.5 µM (≈ 48.3 µg/mL)	125 µM (≈ 96.6 µg/mL)	125 µM (≈ 96.6 µg/mL)	250 µM (≈ 193 µg/mL)	62.5 µM (≈ 48.3 µg/mL)		62.5 µM (≈ 48.3 µg/mL)		125 µM (≈ 96.6 µg/mL)	0.24	1.47
Nc1ccc(-c2c3nc(c(-c4ccccc4)c4ccc([nH]4)c(-c4ccccc4)c4nc(c(-c5ccccc5)c5ccc2[nH]5)C=C4)C=C3)cc1	inactive	125 µM (≈ 78.7 µg/mL)	500 µM (≈ 315 µg/mL)	inactive	500 µM (≈ 315 µg/mL)	125 µM (≈ 78.7 µg/mL)	125 µM (≈ 78.7 µg/mL)	< 20%	inactive	125 µM (≈ 78.7 µg/mL)	125 µM (≈ 78.7 µg/mL)	500 µM (≈ 315 µg/mL)	250 µM (≈ 157 µg/mL)	62.5 µM (≈ 39.4 µg/mL)	inactive	62.5 µM (≈ 39.4 µg/mL)	inactive	125 µM (≈ 78.7 µg/mL)		
Nc1ccc(-c2c3nc(c(-c4ccc(N)cc4)c4ccc([nH]4)c(-c4ccc(N)cc4)c4nc(c(-c5ccc(N)cc5)c5ccc2[nH]5)C=C4)C=C3)cc1		125 µM (≈ 84.4 µg/mL)	500 µM (≈ 337 µg/mL)		250 µM (≈ 169 µg/mL)	250 µM (≈ 169 µg/mL)	250 µM (≈ 169 µg/mL)			62.5 µM (≈ 42.2 µg/mL)	125 µM (≈ 84.4 µg/mL)	125 µM (≈ 84.4 µg/mL)	250 µM (≈ 169 µg/mL)	125 µM (≈ 84.4 µg/mL)		125 µM (≈ 84.4 µg/mL)		125 µM (≈ 84.4 µg/mL)		
NCCCC[C@H](N)C(=O)Nc1ccc(-c2c3nc(c(-c4ccc(N)cc4)c4ccc([nH]4)c(-c4ccc(N)cc4)c4nc(c(-c5ccc(N)cc5)c5ccc2[nH]5)C=C4)C=C3)cc1		250 µM (≈ 201 µg/mL)	> 500 µM		500 µM (≈ 401 µg/mL)	> 500 µM	500 µM (≈ 401 µg/mL)	< 20%		250 µM (≈ 201 µg/mL)	250 µM (≈ 201 µg/mL)	500 µM (≈ 401 µg/mL)	> 500 µM	500 µM (≈ 401 µg/mL)		250 µM (≈ 201 µg/mL)		250 µM (≈ 201 µg/mL)	0.17	1.4
C1=Cc2nc1c(-c1ccccc1)c1ccc([nH]1)c(-c1ccccc1)c1nc(c(-c3ccccc3)c3ccc([nH]3)c2-c2ccccc2)C=C1																			0.64	
